Assay results taken from PubChem BioAssay (NCI).
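All cell lines were grown in 96-well plates and treated with compound for 48 hours. GI50 is the concentration that inhibits growth by half. At the TGI there is no net growth.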

Columns and labels:
Test in all cases: DTP human tumour cell line panel, 48 h
SF-268 CNS = test system: SF-268 CNS
COLO 205 colon = test system: COLO 205 colon
SNB-19 CNS = test system: SNB-19 CNS
M14 melanoma = test system: M14 melanoma
OVCAR-4 ovarian = test system: OVCAR-4 ovarian
UACC-257 melanoma = test system: UACC-257 melanoma
SK-MEL-5 melanoma = test system: SK-MEL-5 melanoma
PC-3 prostate = test system: PC-3 prostate
SK-MEL-28 melanoma = test system: SK-MEL-28 melanoma
SK-OV-3 ovarian = test system: SK-OV-3 ovarian

Compound | GI50 (SF-268 CNS) [µM] | TGI (SF-268 CNS) [µM] | GI50 (COLO 205 colon) [µM] | TGI (COLO 205 colon) [µM] | GI50 (SNB-19 CNS) [µM] | TGI (SNB-19 CNS) [µM] | GI50 (M14 melanoma) [µM] | TGI (M14 melanoma) [µM] | GI50 (OVCAR-4 ovarian) [µM] | TGI (OVCAR-4 ovarian) [µM] | GI50 (UACC-257 melanoma) [µM] | TGI (UACC-257 melanoma) [µM] | GI50 (SK-MEL-5 melanoma) [µM] | TGI (SK-MEL-5 melanoma) [µM] | GI50 (PC-3 prostate) [µM] | TGI (PC-3 prostate) [µM] | GI50 (SK-MEL-28 melanoma) [µM] | TGI (SK-MEL-28 melanoma) [µM] | GI50 (SK-OV-3 ovarian) [µM] | TGI (SK-OV-3 ovarian) [µM]
COc1ccc(NC(=O)COCCOCCNC[C@@H]2C(=O)O[C@H]3[C@H]2CC/C(COC(=O)OC/C2=C/CC[C@@]4(C)O[C@H]4[C@H]4OC(=O)[C@@H](CN(C)C)[C@@H]4CC2)=C\CC[C@@]2(C)O[C@@H]32)c(O)c1C(N)=O | 8.7 | 18.7 | 1.06 | 2.52 | 14.3 | > 50 | 7.22 | 15.5 | 3.19 | 10.2 | 6.1 | 13.2 | 8.79 | 17.3 | 11.1 | 26.9 | 2.79 | 9.57 | 40.6 | > 50
Cc1cc(NCc2cc(Nc3ccnc4cc(Cl)ccc34)ccc2F)nc(N2CCN(C)CC2)n1 | 1.81 | 4.53 | 1.72 | 3.66 | 2.72 | 12.9 | 1.56 | 3.13 | 1.56 | 8.57 | 1.87 | 3.68 | 1.69 | 3.07 | 1.92 | 7.97 | 1.7 | 3.26 | 3.31 | 9.88
Nc1nc(N)c2c(n1)NC(c1ccc(F)cc1)C1CCc3ccccc3C1=N2 (stereo not given) | 8.64 | 23.7 | 1.62 | 3.61 | 12 | 24.8 | 5.51 | 18.7 | 3.98 | 18.2 | 5.37 | 17.8 | 0.609 | 2.21 | 2.03 | 9.31 | 7.16 | 19.7 | 11.1 | 23.3
FC(F)(F)c1ccc(C#Cc2ccccc2C#Cc2ccccc2)cc1 | 42.9 | > 100 | 34.3 | > 100 | 69.3 | > 100 | 44.3 | > 100 | 57.5 | > 100 | 69.5 | > 100 | 32.7 | > 100 | 51.5 | > 100 | > 100 | > 100 | 32.6 | > 100
O=c1oc2cc(N=Cc3ccc4c(c3)OCO4)ccc2c2ccccc12 | – | > 100 | – | > 100 | – | > 100 | – | > 100 | – | > 100 | – | > 100 | – | > 100 | – | > 100 | – | > 100 | – | > 100
CCN(CC)CCn1c2ccccc2c(=O)c2c(O)ccc(O)c21 | – | 52.7 | – | 45.1 | – | > 74.8 | – | 63.6 | – | 34.5 | – | 60.6 | – | 45.5 | – | > 56.1 | – | 48.6 | – | > 81
C=C1C(=O)O[C@H]2[C@H](OC(C)=O)[C@@H](C)CCC/C(C)=C/CC[C@@]3(C)O[C@@H]3C[C@@H]12 | – | 14 | – | 16.5 | – | 34 | – | > 40.4 | – | 8.76 | – | 11.7 | – | 15.5 | – | > 47.5 | – | 11.1 | – | 30.5
Cc1ccc2c(c1)C(C)Cc1c(Cl)ncnc1N2C (stereo not given) | 2.5 | 13.8 | 2.11 | 4.62 | 4.89 | 49.7 | 2.77 | 22.9 | 3.06 | > 100 | 4.29 | 46.2 | 1.86 | 3.41 | 3.62 | 72.1 | 0.905 | 48.7 | 3.75 | 31
O=c1[nH]c(=O)c2cc(C3CC(O)C(CO)O3)ccc2[nH]1 (stereo not given) | > 100 | > 100 | > 100 | > 100 | > 100 | > 100 | > 100 | > 100 | 43.5 | > 100 | > 100 | > 100 | > 100 | > 100 | > 100 | > 100 | > 100 | > 100 | > 100 | > 100
COc1ccc(-n2cc(-c3cc(OC)c(OC)c(OC)c3)nc2SCc2ccccc2)cc1OC | > 100 | > 100 | 69.3 | > 100 | > 100 | > 100 | > 91.6 | > 100 | > 81.4 | > 100 | 77.9 | > 100 | 15.6 | > 100 | 15.3 | > 100 | > 100 | > 100 | > 100 | > 100
Nc1c([N+](=O)[O-])cc2c3c(cccc13)CC2 | – | > 100 | – | > 100 | – | > 100 | – | > 100 | – | > 100 | – | > 100 | – | > 100 | – | > 100 | – | > 100 | – | > 100
CCCCCCCCCCCCOC1C(C(COC2OC(C3COC(C)(C)O3)C3OC(C)(C)OC23)NC(=O)NS(=O)(=O)c2ccccc2)OC2OC(C)(C)OC21 (stereo not given) | 4.34 | 19.6 | 4.37 | 20.7 | 9.18 | 40 | 5.23 | 18.9 | 8.23 | 66.5 | 4 | 16.5 | 2.51 | 6.34 | 3.27 | 13.8 | 9.61 | 28 | 13.8 | 28.1
O=C1C=CC[C@H](/C=C/c2ccccc2)O1 | 2.44 | 16.6 | 2.03 | 20.2 | 3.61 | 22.6 | 5.85 | 23.3 | 1.39 | 10.7 | 9.81 | 26.9 | 3.39 | 16.6 | 3.37 | 27.5 | 2.76 | 15.3 | 5.54 | 99.4
COc1ccc(/C=C(\C#N)n2nnc3ccccc32)cc1 | 2.42 | > 100 | 0.0849 | 1.31 | 0.361 | 13.3 | 0.071 | 2.02 | 0.615 | > 82.5 | 4.92 | > 100 | 0.282 | 2.89 | 0.293 | > 60 | 1.65 | > 86.9 | 0.64 | > 40.1
S=c1ssc(Oc2ccccc2)c1Cl | 13.3 | 26.1 | 23 | 47.5 | 31.6 | 79.6 | 18 | 43.2 | 34 | > 100 | 17.6 | 35.5 | 17.3 | 35.1 | 10.2 | 23.9 | 11.9 | 32 | 39.4 | > 100
Cc1cc(=O)[nH]c2cc3c(c4c(n3Cc3ccc(Cl)cc3Cl)CC(C)(C)CC4=O)c(O)c12 | 76.1 | > 100 | > 100 | > 100 | 55.8 | > 100 | 71.3 | > 100 | > 100 | > 100 | > 100 | > 100 | 16.3 | 31.8 | > 100 | > 100 | > 100 | > 100 | > 100 | > 100
Cc1ccc2nc(-c3ccccc3)c(N=O)n2c1 | – | > 100 | – | > 100 | – | > 100 | – | > 100 | – | > 100 | – | > 100 | – | > 100 | – | > 100 | – | > 100 | – | > 100
COc1cc(NC(=O)CSc2nc3ccc(C)cc3c(=O)n2Cc2ccccc2)cc(OC)c1OC | 6.91 | > 100 | > 100 | > 100 | 21.4 | > 100 | 8.38 | > 100 | 3.41 | 33.3 | 4.86 | > 100 | 3.67 | 23.7 | 6.88 | > 100 | 7.04 | 59.7 | 3.06 | 8.58
Oc1ccccc1C=Nc1nc(SCc2ccccc2)nc2[nH]ncc12 | 28.2 | > 100 | 29.1 | > 100 | 49.5 | > 100 | 38.4 | > 100 | > 100 | > 100 | 52.3 | > 100 | 11.9 | 26.3 | 37.2 | > 100 | 82.8 | > 100 | > 100 | > 100
O=S(=O)(c1cccc2c(Cl)cccc12)N1CCCNCC1 | 21.8 | 52.9 | 16.4 | 35.4 | 16.3 | 30.5 | 12.4 | 24.9 | 11.2 | 24.3 | 10.1 | 22.8 | 13.6 | 26.5 | 13.8 | 26.8 | 10.8 | 22.7 | 15.7 | 29.1
